This passage reports IC50 results from US20090036450A1, “PYRAZOLE COMPOUNDS AND USE THEREOF” (JAPAN TOBACCO, INC., priority 2006, published 2009).

Usually IC50 stands for the concentration that inhibits the measured activity by half.

A value given as a limit tells only on which side of the number the result lay.

The assay concerns the target T1, human liver glycogen phosphorylase (Homo sapiens, UniProt P06737).
T1 construct: made in house; host or cells: Sf9 insect cells (suspension of disrupted cells, diluted in BES buffer, not purified)
T1 sequence (P06737 1-847): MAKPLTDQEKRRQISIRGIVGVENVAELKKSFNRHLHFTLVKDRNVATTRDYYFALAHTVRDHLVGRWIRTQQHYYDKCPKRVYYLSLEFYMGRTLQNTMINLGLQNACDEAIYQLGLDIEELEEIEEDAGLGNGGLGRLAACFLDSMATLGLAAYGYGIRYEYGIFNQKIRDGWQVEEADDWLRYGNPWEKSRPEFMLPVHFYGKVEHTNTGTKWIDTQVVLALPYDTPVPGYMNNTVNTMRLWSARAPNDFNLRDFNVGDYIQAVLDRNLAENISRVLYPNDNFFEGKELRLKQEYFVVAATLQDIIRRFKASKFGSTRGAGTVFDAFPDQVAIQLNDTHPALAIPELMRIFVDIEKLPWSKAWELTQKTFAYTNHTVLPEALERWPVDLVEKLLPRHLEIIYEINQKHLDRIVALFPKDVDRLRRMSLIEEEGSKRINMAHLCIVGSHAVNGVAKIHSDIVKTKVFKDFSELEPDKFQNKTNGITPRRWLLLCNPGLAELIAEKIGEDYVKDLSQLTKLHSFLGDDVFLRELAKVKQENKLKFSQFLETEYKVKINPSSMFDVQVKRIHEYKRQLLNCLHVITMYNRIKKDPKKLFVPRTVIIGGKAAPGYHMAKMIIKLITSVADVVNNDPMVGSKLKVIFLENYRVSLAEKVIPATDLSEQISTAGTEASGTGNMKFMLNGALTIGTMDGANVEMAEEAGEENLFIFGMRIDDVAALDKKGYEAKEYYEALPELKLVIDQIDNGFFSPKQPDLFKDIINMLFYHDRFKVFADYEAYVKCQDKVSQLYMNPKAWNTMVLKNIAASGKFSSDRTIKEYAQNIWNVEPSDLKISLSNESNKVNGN
As to the kind of experiment: Liver glycogen phosphorylase activity, forward reaction system (NADPH detection at 340 nm). It is filed as biochemical. The conditions noted are these: enzyme inhibitory activity against recombinant human liver glycogen phosphorylase (Sf9 cell lysate), room temperature, 75 minutes. A digest of the protocol:
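Recombinant human liver glycogen phosphorylase from Sf9 lysate, run in forward direction with glycogen and phosphate substrate plus glucose, coupled via phosphoglucomutase/G6PDH to NADPH formation. BES buffer pH 6.8, room temperature, 75 min; A340 change minus blank gives activity. IC50 from percent inhibition vs DMSO control.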

`Cc1nc(Cc2ccccc2)oc1CNC(=O)c1cc(NC(=O)c2cc(F)c(F)cc2Cl)[nH]n1` [Example 1-41, 5-(2-chloro-4,5-difluoro-benzoylamino)-1H-pyrazole-3-carboxylic acid (2-benzyl-4-methyl-oxazol-5-ylmethyl)-amide]: the concentration for half-maximal inhibition (IC50) is < 100 nM.
To `Cc1nc(-c2ccc(Cl)s2)sc1CNC(=O)c1cc(NC(=O)c2cc(F)c(F)cc2Cl)[nH]n1` [Example 1-8, 5-(2-chloro-4,5-difluoro-benzoylamino)-1H-pyrazole-3-carboxylic acid [2-(5-chlorothiophen-2-yl)-4-methyl-thiazol-5-ylmethyl]-amide] belongs < 100 nM.
For `Cc1nc(C)c(-c2onc(C)c2CNC(=O)c2cc(NC(=O)c3cc(F)c(F)cc3Cl)[nH]n2)s1` [Example 1-22, 5-(2-chloro-4,5-difluoro-benzoylamino)-1H-pyrazole-3-carboxylic acid [5-(2,4-dimethyl-thiazol-5-yl)-3-methylisoxazol-4-ylmethyl]-amide], the IC50 is < 100 nM.
Consider `Cc1nc(C2CCCCC2)oc1CNC(=O)c1cc(NC(=O)c2cc(F)c(F)cc2Cl)[nH]n1` [Example 1-40, 5-(2-chloro-4,5-difluoro-benzoylamino)-1H-pyrazole-3-carboxylic acid (2-cyclohexyl-4-methyl-oxazol-5-ylmethyl)-amide], for which the concentration for half-maximal inhibition (IC50) was < 100 nM.
To `COc1cccc(-c2nc(C)oc2CNC(=O)c2cc(NC(=O)c3cc(F)c(F)cc3Cl)[nH]n2)c1` [Example 1-31, 5-(2-chloro-4,5-difluoro-benzoylamino)-1H-pyrazole-3-carboxylic acid [4-(3-methoxy-phenyl)-2-methyl-oxazol-5-ylmethyl]-amide] belongs < 100 nM.
To `Cc1nc(-c2ccc(Cl)cc2)c(CNC(=O)c2cc(NC(=O)c3cc(F)c(F)cc3Cl)[nH]n2)o1` [Example 1-28, 5-(2-chloro-4,5-difluoro-benzoylamino)-1H-pyrazole-3-carboxylic acid [4-(4-chloro-phenyl)-2-methyl-oxazol-5-ylmethyl]-amide] belongs < 100 nM.
Take `Cc1nc(COCc2ccccc2)oc1CNC(=O)c1cc(NC(=O)c2cc(F)c(F)cc2Cl)[nH]n1` [Example 1-47, 5-(2-chloro-4,5-difluoro-benzoylamino)-1H-pyrazole-3-carboxylic acid (2-benzyloxymethyl-4-methyl-oxazol-5-ylmethyl)-amide]: the IC50 is < 100 nM.
The figure for `Cc1nnsc1-c1nnc(CNC(=O)c2cc(NC(=O)c3cc(F)c(F)cc3Cl)[nH]n2)o1` [Example 1-78, 5-(2-chloro-4,5-difluoro-benzoylamino)-1H-pyrazole-3-carboxylic acid [5-(4-methyl-[1,2,3]thiadiazol-5-yl)-[1,3,4]oxadiazol-2-ylmethyl]-amide] is < 100 nM; for `CCOC(=O)c1[nH]c(CNC(=O)c2cc(NC(=O)c3cc(F)c(F)cc3Cl)[nH]n2)nc1C` [Example 1-13, 5-(2-chloro-4,5-difluoro-benzoylamino)-1H-pyrazole-3-carboxylic acid (5-ethoxycarbonyl-4-methyl-1H-imidazol-2-ylmethyl)-amide] it is < 100 nM; for `Cc1nc(Cc2ccccc2)c(CNC(=O)c2cc(NC(=O)c3cc(F)c(F)cc3Cl)[nH]n2)o1` [Example 1-36, 5-(2-chloro-4,5-difluoro-benzoylamino)-1H-pyrazole-3-carboxylic acid (4-benzyl-2-methyl-oxazol-5-ylmethyl)-amide p-toluenesulfonate] it is < 100 nM.
To `COCc1nc(C)c(CNC(=O)c2cc(NC(=O)c3cc(F)c(F)cc3Cl)[nH]n2)o1` [Example 1-45, 5-(2-chloro-4,5-difluoro-benzoylamino)-1H-pyrazole-3-carboxylic acid (2-methoxymethyl-4-methyl-oxazol-5-ylmethyl)-amide] belongs < 100 nM.
